# Data reported in paper PMC5635289, “Differential Effects of Angelicin Analogues on NF-κB Activity and IL-8 Gene Expression in Cystic Fibrosis IB3-1 Cells” (Mediators of Inflammation, 2017).
# How the values were obtained:
# IB3-1 cells = assay: Cell proliferation assay on IB3-1 cells; assay type: cell-based; settings: Homo sapiens, cell number/ml after 48 h of treatment
# Description: Monolayers of 60% confluent IB3-1 cells were seeded in 24- or 12-well plates in LHC-8 medium in the presence of 5% FBS. After 24 h, TMA derivatives were added at serial dilutions and incubated for further 2-3 days. The effects of compounds (TMA derivatives) on the cell proliferation were analyzed as elsewhere described. A first analysis was performed with serial dilutions to obtain 50 μM, 200 μM, and 800 μM solutions. In order to determine IC50 values, the following concentrations were used 12.5, 25, 50, 100, 200, and 800 μM. In order to prepare the cells for counting, they were washed with PBS 1X and detached with trypsin/EDTA. Cells were suspended in physiological solution and counted with a Z2 Coulter Counter (Coulter Electronics, Hialeah, FL, USA). The cell number/ml was determined as IC50 after 2 days of culture, when untreated cells are in log phase of cell growth.
# In order to obtain preliminary information on the biological properties of TMA derivatives, their effects on cell growth were examined on IB3-1 cell line, excellent biological model to study new potential anti-inflammatory molecules. The use of this cell line to study the expression of proinflammatory molecules under a variety of stimuli is well established. Monolayers of 60% confluent IB3-1 cells were seeded in 12-well plate in LHC-8 medium with 5% FBS. After 24 h, compounds were added at different concentrations and the cell number/ml was determined after further 48 h of culture.
# NF-κB p50 = target: T1, NF-κB p50 (Homo sapiens, UniProt P19838); assay: EMSA, inhibition of NF-κB/DNA interactions; assay type: binding; settings: NF-κB p50 and 32P-labeled NF-κB oligonucleotide, MIC = minimal inhibitory concentration, 12.5 μM was the lowest concentration used
# T1 construct: This assay was performed using purified NF-κB p50; purchased Promega
# T1 sequence (P19838 1-433 limits assumed): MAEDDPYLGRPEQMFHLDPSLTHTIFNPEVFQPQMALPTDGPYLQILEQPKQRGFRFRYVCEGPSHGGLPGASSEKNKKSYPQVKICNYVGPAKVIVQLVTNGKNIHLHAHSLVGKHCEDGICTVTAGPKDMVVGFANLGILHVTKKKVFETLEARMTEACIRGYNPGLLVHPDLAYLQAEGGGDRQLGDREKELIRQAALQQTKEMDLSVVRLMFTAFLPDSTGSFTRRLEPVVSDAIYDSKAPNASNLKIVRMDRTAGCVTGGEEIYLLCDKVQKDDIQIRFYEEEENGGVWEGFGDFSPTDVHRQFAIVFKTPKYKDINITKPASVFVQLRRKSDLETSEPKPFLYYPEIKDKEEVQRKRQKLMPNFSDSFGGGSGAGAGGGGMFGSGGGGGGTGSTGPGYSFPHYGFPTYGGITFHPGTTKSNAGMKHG
# Description: Electrophoretic mobility shift assays were performed using double-stranded ^32P-labeled oligonucleotides as target DNA. Binding reactions were set up as previously described in binding buffer (10% glycerol, 0.05% NP-40, 10 mM Tris-HCl pH 7.5, 50 mM NaCl, 0.5 mM DTT, and 10 mM MgCl2), in the presence of 0.1 μl/20 μl of NF-κB p50 (50 gsu) (Promega, Madison, WI, USA) and 0.25 ng of labeled oligonucleotide, in a total volume of 20 μl. After 30 min binding at room temperature, samples were electrophoresed at constant voltage (200 V for 30 min) through a low ionic strength (0.25 TBE buffer) (1 TBE/40.089 M Tris-borate, 0.002 M EDTA) on 6% polyacrylamide gels until the tracking dye (bromophenol blue) reached the bottom of a 16 cm slab. Gels were dried and exposed for autoradiography with intensifying screens at […]. In these experiments, DNA/protein complexes migrate through the gel with slower efficiency. In studies on the inhibitors of protein/DNA interactions, addition of the reagents was as follows: (i) nuclear factors, (ii) active principles, (iii) binding buffer, and (iv) labeled oligonucleotides mimicking the binding sites for TF to be modulated. The nucleotide sequence of double-stranded target DNA utilized in these experiments was 5′-CGC TGG GGA CTT TCC ACG G-3′ (sense strand, NF-κB). The synthetic oligonucleotides utilized in this study were purchased from Sigma Genosys (Sigma Genosys, Cambs, UK). To calculate the effective concentrations, three different autoradiograms obtained from different time exposures were scanned and compared to control EMSA performed without addition of angelicin analogues (two independent experiments were performed).
# The effects of TMA derivatives on NF-κB- (nuclear factor-kappaB-) mediated induction of proinflammatory genes was verified first in vitro by electrophoretic mobility shift assay (EMSA) with the aim to verify and quantify the possible inhibition of NF-κB/DNA interactions. This assay was performed using purified NF-κB p50 and ^32P-labeled target NF-κB double-stranded oligonucleotide mimicking the NF-κB consensus sequence present within the IL-8 gene promoter.
# IL-8 mRNA = assay: RT-qPCR quantification of IL-8 mRNA in TNF-α-induced IB3-1 cells; assay type: cell-based, human; settings: for inhibition at 1 µM / inhibition at 10 µM: Homo sapiens, IB3-1, 24 h, TNF-α-induced IB3-1 cells, RT-qPCR, na = not active at the used concentrations; for inhibition at 1 µM: 1 μM compound; for inhibition at 10 µM: 10 μM compound; for Inhibition of IL-8 expression (range given): IB3-1 cells, low concentrations (1–10 μM), concentration not specified per value
# Description: Monolayers of 60% confluent IB3-1 cells were seeded in 6- or 12-well plates in LHC-8 medium in the presence of 5% FBS. After 24 h, pure derivatives were added, 5 h before stimulation with TNF-α 80 ng/ml (ORF Genetics, Kopavogur, Iceland), and incubated for a further 24 h. Total RNA was extracted using TRIzol Reagent (Sigma-Aldrich, St. Louis, MO) following the manufacturer's instructions. Reverse transcription (RT) was performed using Reverse Transcription System kit (Promega, Madison, WI): 1 μg of total RNA was reverse transcribed in the presence of 5 mM MgCl2, 1X reverse transcription buffer (10 mM Tris-HCl, 50 mM KCl, and 0.1% Triton X-100), 1 mM each dNTPs, 20 U recombinant Rnasin Ribonuclease Inhibitor, 15 U AMV Reverse Transcriptase, and 0.5 μg oligo(dT)15 primers in a total volume of 20 μl for 10 min at 70°C and 60 min at 42°C. The resulting cDNA was quantified by relative quantitative real-time PCR (real-time qPCR). For real-time qPCR, 1 μl of cDNA was used for each SYBR Green reaction to quantify the relative expression of IL-8. Each 25 μl of total reaction volume contained 1 μl of cDNA, 10 pmol of primers, 1 iQTM SYBR Green Supermix (Bio-Rad Laboratories Inc., Hercules, CA). Real-time PCRs were performed for a total of 40 cycles (denaturation, 95°C for 10 s; annealing, 68°C for 30 s for IL-8, 65°C for 30 s for IL-6; elongation, 72°C for 60 s) using an iCycler IQ5 (Bio-Rad Laboratories Inc., Hercules, CA). Primer sequences were as follows: IL-8 forward: 5′-GTGCAGTTTTGCCAAGGAGT-3′ and IL-8 reverse: 5′-TTATGAATTCTCAGCCCTCTTCAAAAACTTCTC-3′. The relative proportions of each amplified template were determined utilizing the threshold cycle (CT) value for each performed PCR. The DDCt method was used to compare gene expression data. Each sample was quantified in duplicate. Changes in mRNA expression level were calculated following normalization with the GAPDH calibrator gene (housekeeping gene) and expressed as fold change over untreated samples [24]. Duplicates of negative controls (no template cDNA) were also run with every experimental plate to assess specificity and indicate potential contamination.
# With the aim to study the effective anti-inflammatory properties of these new psoralen derivatives, we decided to further characterize the TMA derivatives for their potential activities on the expression of IL-8 gene, known to be involved in the lung inflammatory process in CF. […] More specifically, we were first interested in identifying compounds with low antiproliferative activity, but effective in downmodulating inflammatory gene expression without achieving a full suppression of these genes. We therefore employed IB3-1 cystic fibrosis cells, incubated for 5 h with two concentrations (1 μM and 10 μM) of selected compounds, and then treated with TNF-α ([…]). In the IB3-1 cystic fibrosis cellular model, NF-κB-dependent genes, including the gene encoding for the proinflammatory protein IL-8, generally are activated following infection with P. aeruginosa or treatment with TNF-α or IL-1β [26, 28, 31]. This feature is very important in the pathophysiology of CF, since several clinical complications are caused by exacerbation of this inflammatory response. After 1 day of incubation, cellular RNA was isolated for RT-qPCR analysis. All the TMA analogues found to be active in inhibiting NF-κB/DNA interactions were analyzed for their effects on inhibition of TNF-α-induced accumulation of IL-8 mRNA.
SMILES,IC50 (IB3-1 cells),Inhibition of NF-κB/DNA complex (MIC) (NF-κB p50),inhibition at 1 µM (IL-8 mRNA),inhibition at 10 µM (IL-8 mRNA),Inhibition of IL-8 expression (range given) (IL-8 mRNA)
CC(=O)OCc1oc2c(C)cc3c(C)cc(=O)oc3c2c1C [Compound 2],> 800 µM,> 100 µM,–,–,–
COCc1oc2c(C)cc3c(C)cc(=O)oc3c2c1C [Compound 3],> 800 µM,> 100 µM,–,–,–
Cc1cc(=O)oc2c1cc(C)c1occc12 [Compound 4],> 800 µM,75 µM,–,–,–
Cc1cc(=O)oc2c1cc(C)c1occ(CBr)c12 [Compound 5],486 µM,12.5 to 25 µM,33%,31%,–
Cc1cc2ccc(=O)oc2c2c(C)coc12 [Compound 6],454 µM,> 100 µM,–,–,–
Cc1cc2c(C(F)(F)F)cc(=O)oc2c2c(C)coc12 [Compound 7],> 800 µM,> 100 µM,–,–,–
Cc1cc2c(CO)cc(=O)oc2c2c(C)coc12 [Compound 8],398 µM,25 to 50 µM,51%,52%,52–83%
COCc1cc(=O)oc2c1cc(C)c1occ(C)c12 [Compound 9],> 800 µM,12.5 µM,–,–,–
Cc1cc2c(CBr)cc(=O)oc2c2c(C)coc12 [Compound 10],< 50 µM,< 12.5 µM,–,–,–
Cc1cc(=O)oc2c1ccc1occ(C)c12 [Compound 11],182 µM,> 100 µM,–,–,–
Cc1cc(=O)oc2c1cc(Cl)c1occ(C)c12 [Compound 12],> 800 µM,12.5 µM,0%,–,–
Cc1cc(=O)oc2c1cc(Br)c1occ(C)c12 [Compound 13],> 800 µM,12.5 µM,–,–,–
Cc1cc(=O)oc2c1cc(C)c1scc(C)c12 [Compound 14],> 800 µM,> 100 µM,–,–,–
COCc1cc(=O)oc2c1cc(C)c1scc(C)c12 [Compound 15],> 800 µM,> 100 µM,–,–,–
O=c1cc(CO)c2ccc3sccc3c2o1 [Compound 16],> 800 µM,25 to 50 µM,18%,21%,–
Cc1cc(=O)[nH]c2c1cc(C)c1occ(C)c12 [Compound 17],193 µM,> 100 µM,–,–,–
Cc1cc(=O)[nH]c2c1cc(C)c1oc(CO)c(C)c12 [Compound 18],> 800 µM,–,–,–,–
Cc1cc(=O)n(C)c2c1cc(C)c1occ(C)c12 [Compound 19],131 µM,–,–,–,–
Cc1cc(=O)oc2c3c(ccc12)OC(C)C3 (stereo not drawn) [Compound 20],154 µM,–,–,–,–
COC1Cc2c(ccc3c(C)cc(=O)oc23)O1 (stereo not drawn) [Compound 21],678 µM,–,–,–,–
Cc1cc(=O)oc2c3c(ccc12)OC(CBr)C3 (stereo not drawn) [Compound 22],180 µM,> 100 µM,–,–,–
Cc1oc2c(C)cc3c(C)cc(=O)oc3c2c1CO [Compound 23],452 µM,–,3%,11%,–
Cc1cc2c(CO)cc(=O)oc2c2cc(CO)oc12 [Compound 24],197 µM,> 100 µM,–,–,–
Cc1cc2c(o1)c(C)cc1c(CO)cc(=O)oc12 [Compound 25],551 µM,25 to 50 µM,–,–,–
Cc1cc(=O)oc2c1ccc1oc(CN)cc12 [Compound 26],90.8 µM,50 to 100 µM,55%,83%,52–83%
Cc1oc2c(cc(C)c3occ(C)c32)c(=O)c1C [Compound 27],> 800 µM,<12.5 (^∗) μM,16%,–,–
Cc1c(C)c2cc(C)c3occc3c2oc1=O [Compound 28],> 800 µM,12.5 to 25 µM,21%,36%,–
Cc1cc(=O)oc2c1cc(C)c1[nH]nnc12 [Compound 31],> 800 µM,25 µM,–,–,–
Cc1cc2c(CO)cc(=O)oc2cc1O [Compound 37],> 800 µM,12.5 to 25 µM,–,–,–
